Results as given in patent publication US6153605A, “Arylsecocholadiene derivatives” (priority 1997, dated 2000).
Read-outs that look alike come from different tables or passages of the source.

Legend:
normal mouse skin [1] = assay: Activity assay hyperproliferative disorders: epidermal thickening (acanthosis) in hairless mice, oral; assay type: in vivo, hairless mice (Moro hr/hr); settings: for ED50: Mus musculus, read-out: ED50 (dose causing halfmaximal epidermal thickening)
Method: Activity Assay Hyperproliferative Disorders
(§1) Orally administered vitamin D analogues can lead to epidermal thickening (acanthosis) in hairless mice. […] Compounds of formula I were tested for 4 days at different dosages in order to detect compounds which show this epidermal effect at subtoxic and non-toxic doses (dosage leading to slight or no weight loss). […] The calcitriol data were obtained from animals treated for three days.
(§2) Hairless mice (Moro hr/hr) received daily administrations of the test compound in arachis oil by gavage for 4 days, using 2-5 different dosages (3 fold increments; 2 animals per dosage group). The mice were sacrificed at day 5 and skin biopsies were taken, fixed in formalin and treated for histological evaluation. The epidermal thickness was measured at standard magnification using an occular grid. Daily measurements of body weight allows to judge toxicity (calcemic liability) and determine the non-toxic dose level defined as the dose which is tolerated without weight loss.
ED50 : dose (μg/kg) causing halfmaximal epidermal thickening
TI shift: shift in "therapeutic index", is defined as ratio ED50 /HT
for calcitriol divided by the ratio ED50 /HTP for the test compound

[2] = Oral tolerance (calcemic liability) by body weight in hairless mice; design: species or system hairless mice (Moro hr/hr); settings: mouse, in vivo, oral gavage in arachis oil, daily for 4 days, read-out: HTDp.o. (highest tolerated oral dose without weight loss)
Method: as §1, §2
HTDp.o.: highest tolerated oral dose (μg/kg) without weight loss

normal mouse skin [3] = settings: known antipsoriatics; cited from earlier work
[4] = 96 h, oral gavage in arachis oil, daily for 4 days

SMILES	ED50 (normal mouse skin [1]; [4]) [mg/kg]	ratio ED50/HTD (normal mouse skin [1]; oral, 4 days)	MTD [2] [mg/kg]	skin effect (epidermal thickening) on 4 days dosing, in words (normal mouse skin [1]; 4 days)	ED50 (normal mouse skin [1]; 72 h, oral, calcitriol treated for three days) [mg/kg]	ratio ED50/HTD (normal mouse skin [1]; oral, calcitriol treated for three days)	epidermal thickening effect on normal mouse skin, in words (normal mouse skin [3])
CC(C#Cc1ccccc1C(C)(C)O)[C@H]1CC[C@H]2/C(=C/C=C3C[C@@H](O)C[C@H](O)C3)CCC[C@]12C (stereo partly drawn) [Example 6, (7E)-(1R,3R)-23-[2-(1-Hydroxy-1-methyl-ethyl)-phenyl]-19,24-dinor-9,10-seco-chola-5,7-dien-22-yne-1,3-diol]	2.5	63	0.04				
C=C1/C(=C\C=C2/CCC[C@]3(C)[C@@H]([C@@H](C)C#Cc4cccc(C(C)(C)O)c4)CC[C@@H]23)C[C@@H](O)C[C@@H]1O [Example 14, (5Z,7E)-(1S,3R,20R)-23-[3-(1-Hydroxy-1-methyl-ethyl)-phenyl)-24-nor-9,10seco-chola-5,7,10(19)-trien-22-yne-1,3-diol]	7	7	1				
C=C1/C(=C\C=C2/CCC[C@]3(C)[C@@H]([C@@H](C)C#Cc4ccccc4C(C)(C)O)CC[C@@H]23)C[C@@H](O)C[C@@H]1O [Example 16, (5Z,7E)-(1S,3R,20R)-23-[2-(1-Hydroxy-1-methyl-ethyl)-phenyl)-24-nor-9,10-seco-chola-5,7,10(19)-trien-22-yne-1,3-diol]	10	5	2				
C=C1/C(=C\C=C2/CCC[C@]3(C)[C@@H]([C@H](C)CCCC(C)(C)O)CC[C@@H]23)C[C@@H](O)C[C@@H]1O [calcitriol, 1,25-dihydroxycholecalciferol, reference compound]				could not be dosed for 4 days high enough to obtain this skin effect	0.5	500	show this effect on normal mouse skin
